Calls of active or inactive are those of the source. No cut-off for these calls is given here.
Assays:
Pseudomonas aeruginosa [1] = assay: Antibacterial activity against Pseudomonas aeruginosa PAO1 infected in BALB/c mouse wound infection model measured after 3 days; type: functional, organism-based; conditions: time 3.0 day
RAW264.7 = assay: Cytotoxicity against mouse RAW264.7 cells assessed as reduction in cell viability at < 100 uM incubated for 24 hrs by MTT assay; type: toxicity, cell-based; conditions: raw264.7, 24 h
Pseudomonas aeruginosa [2] = assay: Antibiofilm activity against Pseudomonas aeruginosa PAO1 assessed as fold increase in pyochelin level at 10 uM incubated for 2 hrs by fluorescence based analysis; type: functional
Pseudomonas aeruginosa [3] = assay: Anti-motility activity against Pseudomonas aeruginosa PAO1 assessed as reduction in swarming motility incubated for 24 hrs; type: functional, organism-based; conditions: dose 0.3125-10 µM
Pseudomonas aeruginosa [4] = assay: Antibacterial activity against Pseudomonas aeruginosa PAO1 infected in BALB/c mouse wound infection model assessed as bacterial survival rate in wound at 2.5 uM administered to wound once a day for 3 days in dropwise manner in presence of tobramycin; type: functional; conditions: PAO1, 72 h, time 3 day
Pseudomonas aeruginosa [5] = assay: Antivirulence activity in Pseudomonas aeruginosa PAO1 assessed as reduction in elastase production at 10 uM incubated for 24 hrs relative to control; type: functional; parameters: scale not given: the % may be the effect or the level left
Pseudomonas aeruginosa [6] = assay: Antibacterial activity against Pseudomonas aeruginosa PAO1 infected in BALB/c mouse wound infection model assessed as reduction in wound area at 2.5 uM administered to wound once a day for 3 days and measured after 9 days in dropwise manner; type: functional; parameters: scale not given: the % may be the effect or the level left; conditions: time 12 day
Pseudomonas aeruginosa [7] = assay: Antibiofilm activity against Pseudomonas aeruginosa PAO1 assessed as inhibition of biofilm formation at 0.15625 uM incubated for 24 hrs by crystal violet staining based analysis relative to control; type: functional
Pseudomonas aeruginosa [8] = assay: Antibiofilm activity against Pseudomonas aeruginosa PA1167 assessed as inhibition of biofilm formation incubated for 24 hrs by crystal violet staining based analysis; type: functional, organism-based
Pseudomonas aeruginosa [9] = assay: Antibiofilm activity against Pseudomonas aeruginosa PAO1 assessed as reduction in pFe(III) content incubated for 24 hrs; type: functional
[10] = Toxicity in BALB/c mouse wound infection model assessed as heart damage measured for 9 days by H and E staining based analysis; type: tissue-based; conditions: in vivo, 216 h, time 9 day
Pseudomonas aeruginosa [11] = assay: Antibiofilm activity against Pseudomonas aeruginosa PAO1 overexpressing fpvA assessed as inhibition of biofilm formation at 0.3125 to 10 uM incubated for 24 hrs by crystal violet staining based analysis; type: functional, organism-based; conditions: dose 0.3125-10 µM
Pseudomonas aeruginosa [12] = assay: Antibiofilm activity against Pseudomonas aeruginosa PAO1 harboring pvds-deficient mutant assessed as inhibition of biofilm formation at 0.3125 to 10 uM incubated for 24 hrs by crystal violet staining based analysis; type: functional, organism-based; conditions: dose 0.3125-10 µM
Pseudomonas aeruginosa [13] = assay: Antibiofilm activity against Pseudomonas aeruginosa PAO1 assessed as reduction in iron content at 10 uM incubated for 24 hrs by cell total iron colorimetric assay relative to control; type: functional; parameters: scale not given: the % may be the effect or the level left
[14] = Toxicity in BALB/c mouse assessed as heart damage by H and E staining based analysis; type: tissue-based; conditions: in vivo

Compound: COc1ccc2nc(NCC(=O)NCCCCC(=O)NO)sc2c1
- Activity (Pseudomonas aeruginosa [1]): No effect
- Activity (RAW264.7): Non-toxic
- fold change (FC) (Pseudomonas aeruginosa [2]): 1.7
- Activity (Pseudomonas aeruginosa [3]): Dose-dependent-effect
- survival at 2.5 µM (Pseudomonas aeruginosa [4]): 0.97%
- Activity (Pseudomonas aeruginosa [5]): 43%
- Activity (Pseudomonas aeruginosa [6]): 55%
- inhibition at 0.1562 µM (Pseudomonas aeruginosa [7]): 40%
- Activity (Pseudomonas aeruginosa [8]): Active
- Activity (Pseudomonas aeruginosa [9]): 19.61
- Activity [10]: Non-toxic
- Activity (Pseudomonas aeruginosa [11]): No effect
- Activity (Pseudomonas aeruginosa [12]): No effect
- Activity (Pseudomonas aeruginosa [13]): 57%
- Activity [14]: Non-toxic

From ChEMBL document CHEMBL6103650, “Hybrid Molecules of Benzothiazole and Hydroxamic Acid as Dual-Acting Biofilm Inhibitors with Antibacterial Synergistic Effect against Pseudomonas aeruginosa Infections” (J Med Chem, 2025)
